Results on one substance are retold here after US7795223B2, “Treatment of inflammatory airway disease” (Novozymes Biopharma Au Ltd., priority 2004, dated 2010).

The subject of one test is Brown Norway rats. Description: Brown Norway rat OVA model of asthma: BAL leukocytes, eosinophil peroxidase and myeloperoxidase. The test is classed as in vivo. The note with it: administration prior to challenge with allergen. The protocol: The Brown Norway rat model was also employed to test the effects of TCR mimic peptides on reducing the symptoms of asthma. Similarly to the murine model described above, this model also involves immunisation with OVA. The model is described in Elwood, 1991. The model is illustrated in FIG. 5. In this model 10 rats were used per treatment group.
Rats were immunized against OVA by s.c. injection on Day 1, 14 and 21, and on Day 28 an inhalation challenge dose of OVA protein was administered. One day later (Day 29) the degree of airway inflammation was assessed by bronchoalveolar lavage (BAL), followed by counting of the infiltrating leukocytes and measurement of the activity of eosinophil peroxidase and myeloperoxidase.
Male Brown Norway rats (approximately 8 wks of age) were injected s.c. with 10 μg of OVA in 1 ml of alum adjuvant on day 1, 14 and 21. Concurrently, the animals received an i.p. injection of 0.25 ml Bordetella pertussis vaccine (Trivax-Evans Medical). Seven days. after the final sensitizing dose, the animals were restrained and exposed, nose only, to an aerosol of 10 mg/ml OVA for 1 h using a Wright nebuliser.
In these experiments the peptide was administered either intra-tracheally (i.t) (3 mg/ml, 50 μl in 0.9% saline per rat, 24 hours before OVA challenge), intra-nasally (i.n.) (50 mg/ml, 100 μl in 0.9% saline per rat, 24 hours before OVA challenge) or by inhalation (0.1 mg/ml in 0.9% saline, 50 ml delivered by aerosol at a flow rate of 1 ml/min, for a total of 50 minutes, using a Wright nebuliser to ten (10) rats, 24 h and 4 h prior to OVA challenge). […]
Twenty-four hours after the challenge with OVA, the rats from the different groups were anaesthetized by an i.p injection of sodium pentobarbital (100 mg/kg). […] The BAL fluid was centrifuged and the collected cells resuspended in 2 ml of PBS and the total number of leukocytes recovered were counted. The activity of eosinophil peroxidase and myeloperoxidase in the supernatant, following centrifugation (i.e., the cell-free BAL fluid) was determined by the method described in Schneider et al. 1997.

The test system of test [1] is BALB/c mice. Description: Murine OVA model of asthma: BAL cell counts and lung histology. The test is classed as in vivo, mouse. Particulars: for eosinophilia on lung histology / eosinophil infiltration into lung tissue: peptide i.n. 24 h before i.n. OVA challenge. The protocol:
A murine model in which immunization with ovalbumin (OVA) is used to induce asthma-like symptoms in normal Balb/c mice was employed. This model is described in Archer et al. 2004.
Mice were immunized against OVA by i.p. injection and fourteen days later an intra-nasal (i.n.) challenge dose of OVA protein was administered. Three days later the degree of airway inflammation was assessed by bronchoalveolar lavage (BAL,) followed by counting the infiltrating leukocytes. In addition, the lungs were sectioned and stained with haematoxylin and eosin for histological analysis. In a preliminary experiment, live mice were monitored after treatment using whole body plethysmography to assess the degree of airway obstruction.
Female BALB/c mice (6-8 wk of age) were injected i.p. with 10 μg of OVA (Sigma-Aldrich, St. Louis, Mo.) in 200 μl of alum adjuvant (Serva, Heidelberg, Germany) on day 1. Fourteen days after the i.p. immunization, mice were anaesthetized by an i.p. injection of a mixture of ketamine and xylazine (Sigma-Aldrich), and treated i.n. with 50 μl of PBS containing 100 μg of OVA.
In preliminary experiments the peptide or “mock” peptide was given at either of two different time points (24 h prior to i.p. OVA sensitization or 24 h prior to i.n. OVA challenge) at a final concentration of either 1 mM (solution) or 50 mM (suspension) in phosphate-buffered saline (PBS; 0.02 M sodium phosphate buffer with 0.15 M sodium chloride, pH adjusted to 7.4.). The 50 mM concentration of the TCR peptide was chosen because 500 μM was the optimal blocking concentration for T cells in in vitro experiments. However, experiments using titration of the peptide will be used to determine the optimal dose. A 100 μl volume of formulated peptide was administered to the mice intranasally. […]
Three days after the i.n. challenge with OVA, the mice from the different groups were sacrificed, the tracheas were cannulated, and a BAL was performed by flushing lung and airways five times with 1 ml of PBS. BAL cells were counted and spun on to glass slides using a cytospin (Shandon Southern Products, Asmoor, U.K.), and then stained with Diff-Quik (Roche Diagnostics, Mannheim, Germany) according to the manufacturer's instructions. […]
Percentages of macrophages, lymphocytes, neutrophils, and eosinophils were determined microscopically using standard histological criteria.
On days 1-6 after the last intranasal challenge with either OVA or saline, the lungs were analyzed by histology. […] The number of eosinophils in the lungs was quantified microscopically using a calibrated stage. […]

Test [2] deals with human patients with psoriasis, atopic eczema, lichen planus, or contact dermatitis. Particulars: cited from earlier work.
In another test the test system is sensitised animals. Particulars: applied topically following application of a contact allergen; cited from earlier work.
Another test concerns T cells. Description: Blocking of T cell function. The note with it: in vitro experiments. It is filed as cell-based.
The test system of test [3] is BALB/c mice. Description: Whole body plethysmography of airway obstruction in the murine OVA model. The note with it: preliminary experiment, peptide before allergen challenge, days 0-6. It is filed as in vivo, mouse. The procedure:
Mice were immunized against OVA by i.p. injection and fourteen days later an intra-nasal (i.n.) challenge dose of OVA protein was administered. Three days later the degree of airway inflammation was assessed by bronchoalveolar lavage (BAL,) followed by counting the infiltrating leukocytes. In addition, the lungs were sectioned and stained with haematoxylin and eosin for histological analysis. In a preliminary experiment, live mice were monitored after treatment using whole body plethysmography to assess the degree of airway obstruction. The effects of antigen challenge on airway hyperreactivity of mice in the experimental model described above can be measured by whole body plethysmography. This can be used to make an accurate comparison with the airway hyperreactivity observed in human asthmatics. The mice are anesthetized with pentobarbitol (70-90 mg/kg body weight, i.p.), and the jugular vein is cannulated with PE 10 silastic tubing. The tracheae are then intubated with a specially-angled 18 gauge needle, the chest opened, and the tubing connected to a Harvard ventilator (tidal volume=0.2 ml, frequency 120 breaths/min, positive end-expiratory pressure 2.5-3.0 cm H2 O) and placed in a whole body plethysmograph. This ventilation maintains normal arterial blood gases in the subject mouse. The dead space volume is 0.025 ml. […]

For “NH2-Gly-Leu-Arg-Ile-Leu-Leu-Leu-Lys-Val-OH (H-GLRILLLKV-OH) [peptide, 9 amino acids, murine TCR-α transmembrane chain]”, in the test on Brown Norway rats, the “eosinophil peroxidase activity in bronchoalveolar lavage fluid” value is given as “reduction”, the “leukocyte infiltration into lung tissue” value is on record as “marked reduction” and the “myeloperoxidase activity in bronchoalveolar lavage fluid” value is listed as “reduction”. In addition, the asthma symptoms entry with BALB/c mice [1] (asthmatic mice, non-transgenic system) is reported as “reduces asthma symptoms”. Moreover, the “eosinophilia in BAL” value with BALB/c mice [1] (group C: peptide i.n. 24 h before i.n. OVA challenge, two independent experiments, pooled data) is “significant decrease”. The “eosinophilia on lung histology / eosinophil infiltration into lung tissue” value in the test with BALB/c mice [1] (two independent experiments, pooled data) was “significant decrease”. For the same substance, in the test with BALB/c mice [1] (two independent experiments, pooled data, listed as TCR mimic peptide), the “eosinophilia on lung histology / eosinophil infiltration into lung tissue” value is “marked reduction”. Moreover, the “therapeutic activity in human patients” value in test [2] is on record as “showed therapeutic activity”. Besides, in the test on sensitised animals, the “development of contact sensitivity” value was “inhibited development of contact sensitivity”. Further, the “optimal blocking concentration for T cells” value in the test on T cells turned out to be 500 µM. The “airway obstruction measured by whole body plethysmography” value in the test on BALB/c mice [3] is “significant effects”. Further, the “airway obstruction measured by whole body plethysmography” value in the test with BALB/c mice [3] (listed as TCR mimic peptide) is on record as “significant reduction”.
